We go through one molecule from patent US10357576B2, “18F-labelled folate/antifolate analogues” (MERCK & CIE, priority 2012, dated 2019).

The experiment deals with T1, Folate receptor (Homo sapiens, UniProt P15328).
T1 construct: host or cells: KB cells (human cervical carcinoma cell line, HeLa subclone)
The experiment is described as follows: Folate receptor binding affinity (displacement of ^3H-folic acid on KB tumor cells). The note with it: ^3H-folic acid 0.84 nM, 4° C., 30 min, read-out: FR-binding affinity IC50.

T1 sequence (P15328 25-234): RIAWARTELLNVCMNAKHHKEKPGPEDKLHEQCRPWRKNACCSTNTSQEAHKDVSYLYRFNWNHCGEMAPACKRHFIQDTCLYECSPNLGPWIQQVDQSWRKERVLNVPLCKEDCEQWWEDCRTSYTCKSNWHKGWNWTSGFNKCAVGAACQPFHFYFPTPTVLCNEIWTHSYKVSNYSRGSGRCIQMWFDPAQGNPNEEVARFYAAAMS
Description: Cell Culture: KB cells (human cervical carcinoma cell line, HeLa subclone; ACC-136) were purchased from the German Collection of Microorganisms and Cell Cultures (DSMZ, Braunschweig, Germany). The cells were cultured as monolayers at 37° C. in a humidified atmosphere containing 5% CO2. […] FFRPMI medium was supplemented with 10% heat-inactivated fetal calf serum (FCS, as the only source of folate), L-glutamine and antibiotics (penicillin/streptomycin/fungizone). Routine culture treatment was performed twice a week with EDTA (2.5 mmol/l) in PBS.
After incubation, Eppendorf tubes containing the cell suspensions were centrifuged at 4° C. for 5 min and the supernatant was removed. By addition of 0.5 ml of NaOH 1 M the cell pellets were lysed and transferred into scintillation tubes containing 5 ml of scintillation cocktail (Ultima Gold; Perkin Elmer). Radioactivity was measured using a liquid scintillation analyzer (Tri-Carb 1900 TR, Packard) and an inhibitory concentration of 50% was determined from displacement curves using GraphPad Prism (version 5.01) software.

Broadly, the IC50 is the concentration that inhibits the measured activity by half. Consider `Nc1nc2ncc(CNc3ccc(C(=O)N[C@@H](CCC(=O)O)C(=O)O)c(F)n3)nc2c(=O)[nH]1` [3′-aza-2′-fluorofolic acid], for which the IC50 was determined as 0.81 ± 0.18 nM.
